Values quoted from earlier work in patent US8617618B2, “Topical compositions containing magaldrate” (Difass International S.R.L., priority 2007, dated 2013).

Key:
[1] = in water and alcohol; white, crystalline powder
[2] = test system: gastric pH; settings: rapid, persistent ability to maintain the gastric pH
[3] = single and repeated oral doses
[4] = humans, oral intake

- solubility [1]: insoluble
Substance: Magaldrate
- gastric pH maintained [2]: 3-5
- toxicity [3]: almost non-toxic
- absorption of aluminium or magnesium [4]: not followed by any significant absorption
